Test results reported in article PMC6471225 (Molecules, 2019).

Key:
in vitro = conditions: human, cytotoxic concentration (CC50) required to reduce cell viability by 50%
TBEV Neudoerfl strain [1] = assay: microbe, parasite or virus in culture; format: cell-based, tick-borne encephalitis virus; conditions: for IC50: Tick-borne encephalitis virus, A549, 72 h, read-out: half-maximum inhibitory concentration (IC50), reduction of viral titer by 50%
TBEV Neudoerfl strain [2] = format: cell-based, tick-borne encephalitis virus
TBEV Hypr strain [3] = format: cell-based, tick-borne encephalitis virus
TBEV Hypr strain [4] = format: cell-based, tick-borne encephalitis virus; remark: listed apart in the source
A549 cells = conditions: human
TBEV E and prM proteins = format: cell-based, tick-borne encephalitis virus

Row | Compound | CC50 (in vitro) [µM] | selectivity index (SI) CC50/IC50 (TBEV Neudoerfl strain [1]) | IC50 (TBEV Neudoerfl strain [1]) [µM] | inhibition of TBEV infection, size and number of plaques (TBEV Neudoerfl strain [2]) | reduction of number of plaques vs DMSO-treated infected cells (TBEV Neudoerfl strain [2]) | cell viability after inhibitory treatment (protection from TBEV-induced CPE) (TBEV Hypr strain [3]) [%] | also measured
1 | CC1(C)OC2C(COC3CC(OCc4ccccc4)C(OCc4ccccc4)C(CO)O3)OC(n3ccc(=O)n(C(=O)c4ccccc4)c3=O)C2O1 (stereo not shown) [Compound 11] | 141 | 13.8 | 10.2 | nearly a complete inhibition of TBEV infection | 82–96% | 81 | 
2 | CC(=O)OCC1OC(OCC2OC(n3ccc(=O)n(Cc4ccccc4)c3=O)C3OC(C)(C)OC23)CC(OC(C)=O)C1OC(C)=O (stereo not shown) [Compound 8] | 225 |  |  |  |  |  | 
3 | O=c1ccn(C2OC(COC3CC(O)C(O)C(CO)O3)C(O)C2O)c(=O)[nH]1 (stereo not shown) [Compound 9] | 238 |  |  |  |  |  | 
4 | CC1(C)OC2C(COC3CC(OCc4ccccc4)C(OCc4ccccc4)C(CO[Si](C)(C)C(C)(C)C)O3)OC(n3ccc(=O)[nH]c3=O)C2O1 (stereo not shown) [Compound 5] | 79 |  |  |  |  |  | 
5 | CC1(C)OC2C(COC3CC(OCc4ccccc4)C(OCc4ccccc4)C(CO[Si](C)(C)C(C)(C)C)O3)OC(n3ccc(=O)n(C(=O)c4ccccc4)c3=O)C2O1 (stereo not shown) [Compound 10] | 121 | 18.6 | 6.5 | nearly a complete inhibition of TBEV infection | 82–96% | 90 | 
6 | CC(=O)O[C@H]1[C@H](C)O[C@H](OC[C@H]2O[C@@H](n3ccc(=O)[nH]c3=O)[C@@H]3OC(C)(C)O[C@@H]32)C[C@@H]1O[Si](C)(C)C(C)(C)C [Compound 1] | 74 |  |  | minor or no antiviral effect |  |  | effect on viral growth (TBEV Neudoerfl strain [1]): did not affect viral growth; effect on viral growth (TBEV Hypr strain [4]): did not affect viral growth
7 | CC1(C)OC2C(COC3CC(OCc4ccccc4)C(OCc4ccccc4)C(COCc4ccccc4)O3)OC(n3ccc(=O)[nH]c3=O)C2O1 (stereo not shown) [Compound 3] | 97 |  |  | minor or no antiviral effect |  |  | effect on viral growth (TBEV Neudoerfl strain [1]): did not affect viral growth; effect on viral growth (TBEV Hypr strain [4]): did not affect viral growth
8 | CC(=O)OCC1OC(OCC2OC(n3ccc(=O)[nH]c3=O)C3OC(C)(C)OC23)CC(OC(C)=O)C1OC(C)=O (stereo not shown) [Compound 7] |  |  |  |  |  |  | CC50 (A549 cells): 223 µM
9 | CC1(C)OC2C(COC3CC(OCc4ccccc4)C(OCc4ccccc4)C(COCc4ccccc4)O3)OC(n3ccc(=O)n(C(=O)c4ccccc4)c3=O)C2O1 (stereo not shown) [Compound 4] | 119 | 85 | 1.4 | nearly a complete inhibition of TBEV infection | 90% | ~99 | synthesis of E and prM proteins (TBEV E and prM proteins): completely inhibited the synthesis of both proteins; reduction of the viral titer vs infected mock-treated cells (TBEV Neudoerfl strain [1]): 10^4 fold; virus detection in supernatant (TBEV Neudoerfl strain [1]): no virus was detected; plaque formation (TBEV Neudoerfl strain [2]): no plaques were detected
10 | CC(=O)OCC1OC(OCC2OC(n3ccc(=O)[nH]c3=O)C3OC(C)(C)OC23)CC(OC(C)=O)C1OC(C)=O (stereo not shown) [Compound 6] | 196 |  |  |  |  |  | 
11 | CC(=O)O[C@H]1[C@H](C)O[C@H](OC[C@H]2O[C@@H](n3ccc(=O)n(C(=O)c4ccccc4)c3=O)[C@@H]3OC(C)(C)O[C@@H]32)C[C@@H]1O[Si](C)(C)C(C)(C)C [Compound 2] | 141 | 26.6 | 5.3 | nearly a complete inhibition of TBEV infection | 98% | ~99 | TBEV titer (TBEV Neudoerfl strain [1]): undetectable levels; plaque formation (TBEV Neudoerfl strain [2]): no plaques were detected
